Assay results taken from article PMC5431781, “Structural studies of the periplasmic portion of the diguanylate cyclase CdgH from Vibrio cholerae” (Scientific Reports, 2017).
Where two headings read alike, the source gives them in different places.

What was measured:
[1] = biological target: PBPb-I domain of CdgH (residues 46–250) (Vibrio cholerae, UniProt Q9KT38); assay type: binding
LAOBP = biological target: LAOBP; parameters: method as in PMID 1400387; details: cited from earlier work

Sequence of PBPb-I domain of CdgH (residues 46–250) (Q9KT38 46-250 limits assumed): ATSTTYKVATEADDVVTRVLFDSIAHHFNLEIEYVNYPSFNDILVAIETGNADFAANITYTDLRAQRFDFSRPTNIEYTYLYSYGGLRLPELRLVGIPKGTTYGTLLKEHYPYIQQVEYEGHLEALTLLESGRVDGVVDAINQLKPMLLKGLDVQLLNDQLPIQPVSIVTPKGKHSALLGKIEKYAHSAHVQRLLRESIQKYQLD

Q: With N[C@@H](Cc1c[nH]cn1)C(=O)O [L-His, L-histidine] as the compound, how does the ΔH ([1]; pH 8) read?
A: -7.90 ± 0.28 kcal/mol

Q: Which Kd ([1]; pH 8) does the source give for N[C@@H](CC(=O)O)C(=O)O [L-aspartate] here?
A: no measurable binding affinity

Q: Which ΔH ([1]; pH 8) does the source give for NC(=O)CC[C@H](N)C(=O)O [L-Gln, L-glutamine] here?
A: -3.57 ± 1.02 kcal/mol

Q: Which Ka ([1]; pH 8) does the source give for NCCC[C@H](N)C(=O)O [L-Orn, L-ornithine] here?
A: 240000 ± 33700 M⁻¹

Q: And the ΔH ([1]; pH 8)?
A: -3.61 ± 0.08 kcal/mol

Q: What about the Kd ([1]; pH 8, read-out: Kd) of the same compound?
A: 4170 nM

Q: For NCCCC[C@H](N)C(=O)O [L-Lys, L-lysine], which “binding affinity weaker than that with L-arginine” value [1] is on record?
A: about 18 fold

Q: And the ΔH ([1]; pH 8)?
A: -6.02 ± 0.05 kcal/mol

Q: With N=C(N)NCCC[C@H](N)C(=O)O [L-Arg, L-arginine] as the compound, how does the Kd (LAOBP) read?
A: 14 nM

Q: And the ΔH ([1]; pH 8)?
A: -12.87 ± 0.04 kcal/mol
